In patent US8822541B2, “Use of targeted nitroxide agents in mitigating or treating radiation injury” (University of Pittsburgh—Of the Commonwealth System of …, priority 2008, dated 2014):
Several values for one entry are separate records, joined by “and”; a condition that tells them apart may be missing. Equal entries are not always repeated. Entries after “also recorded” stand apart in the source; their conditions may differ.

Tests used:
Sprague Dawley rats = assay: Survival of rats subjected to volume-controlled hemorrhagic shock; assay type: in vivo, rat; details: 2 μmol/kg iv
Description: Survival of rats subjected to volume-controlled hemorrhagic shock. Following surgical preparation and a 5-min stabilization period to obtain baseline readings, rats were subjected to hemorrhagic shock. Bleeding was carried out in 2 phases.
Initially, 21 ml/kg of blood was withdrawn over 20 min. Immediately thereafter, an additional 12.5 ml/kg of blood was withdrawn over 40 min. Thus, hemorrhage occurred over a total period of 60 min and the total blood loss was 33.5 ml/kg or approximately 55% of the total blood volume. Rats were randomly assigned to receive XJB-5-131 (2 μmol/kg) or its vehicle, a 33:67 (v/v) mixture of DMSO and normal saline. XJB-5-131 solution or vehicle alone was administered as a continuous infusion during the last 20 min of the hemorrhage period. The total volume of fluid infused was 2.8 ml/kg and it was administered intravenously using a syringe pump (KD100, KD Scientific, New Hope, Pa.). […] At the end of the 6 hour observation period, animals that were still alive were euthanized with an overdose of KCl.
Blood pressure was recorded continuously using a commercial strain-gauge transducer, amplifier, and monitor (S90603a, SpaceLabs, Redmond, Wash.). Blood samples (0.5 ml) were collected from the jugular vein at the beginning of hemorrhage (baseline), at the end of hemorrhage (shock) and at the end of resuscitation (resuscitation). Hemoglobin concentration [Hb], lactate and glucose concentration were determined using an auto-analyzer (Model ABL 725, Radiometer Copenhagen, Westlake, Ohio).
A total of sixteen rats were tested in this study. Rats were treated with 2.8 ml/kg of vehicle or the same volume of XJB-5-131 solution during the final 20 min of the bleeding protocol. The total dose of XJB-5-131 infused was 2 μmol/kg. Following profound hemorrhagic shock consistent with the protocol described above for the prior studies, thirteen survived for at least 60 min and received the full dose of either XJB-5-131 solution or the vehicle, a 33:67 (v/v) mixture of DMSO and normal saline. […] None of the between-group differences were statistically significant.

[1] = system: 32D cl 3 mouse hematopoietic progenitor cell line; assay: Irradiation survival curves of 32D cl 3 cells with JP4-039 (Example 10); assay type: cell-based; details: 10 μM, control 1.29
Description: Irradiation survival curves were performed on cells from the 32D cl 3 mouse hematopoietic progenitor cell line, incubated in 10 μM JP4-039 for 1 hour before irradiation, or plated in methycellulose containing 10 μM JP4-030 after irradiation. Cells were irradiated from 0 to 8 Gy, plated in 0.8% methycellulose containing media, and incubated for 7 days at 37° C. Colonies of greater than 50 cells were counted and data analyzed by linear quadratic and single-hit, multi-target models.

[2] = system: MEF cells from wild-type mouse embryos; assay: Toxicity of JP4-039 in wild-type MEF cultures; assay type: cell-based; details: up to 10 μM, 48 hours
Description: To assess the therapeutic potential of JP4-039, tests for safety and protective activity were performed. FIGS. 35 and 36 show the results of tests to evaluate whether varying concentrations of JP4-039 produce toxic effects after 48 hours in cultures of MEF cells prepared from Ercc1^−/− or wild-type mouse embryos, respectively.

32D cl 3 cells = assay: EPR-based analysis of nitroxide distribution and partitioning in subcellular fractions; assay type: cell-based, mouse; details: 10 μM, 1 h
Description: To determine nitroxide partitioning and distribution in subcellular compartments, electron paramagnetic resonance (EPR) was utilized. 32D cl 3 cells were incubated for 24 h under pelleted or flask growth conditions. After incubation, 150×10^6 cells were resuspended at a concentration of 10×10^6 cells/mL and were treated with 10 μM JP4-039 or 10 μM TEMPO for 1 h (Wipf P, et al., Mitochondrial targeting of selective electron scavengers: synthesis and biological analysis of hemigramicidin-TEMPO conjugates. J Am Chem. Soc. 127: 12460-12461, 2005).
Subcellular compartments were isolated by differential centrifugation. Cells were centrifuged at 1500 RPM for 10 min and the supernatant (media) was removed. The remaining whole cell pellet was washed with cold PBS, resuspended in 0.3 mL of hypotonic buffer solution, and incubated on ice for 45 min. Cells were then lysed by three rapid freeze-thaw cycles in liquid nitrogen for 30 sec and water at 25° C. for 3 min. Lysed cells were centrifuged at 3000×g for 5 min to isolate nucleus and cellular debris. Supernatant was centrifuged at 12000×g for 45 min to isolate mitochondria from cytoplasm (Wipf P, et al., Mitochondrial targeting of selective electron scavengers: synthesis and biological analysis of hemigramicidin-TEMPO conjugates. J Am Chem. Soc. 127: 12460-12461, 2005).
Each cellular fraction (media, whole cell pellet, nucleus/cellular debris, mitochondria, and cytoplasm) was mixed with DMSO (1:1 vol/vol) and 2 mM of potassium ferricyanide (K3Fe(CN)6) to convert […] to EPR-detectable radical forms (Behringer W, et al., Antioxidant Tempol enhances hypothermic cerebral preservation during prolonged cardiac arrest in dogs. J Cereb Blood Flow Metab. 22: 105-117, 2002). 70 μL of the homogenate was loaded into Teflon tubing (0.8 mm internal diameter) (Alpha Wire Corp., Elizabeth, N.J.) which was folded in half and placed into an open ESR quartz tube (inner diameter of 3.0 mm). EPR measurements were made in triplicate using a JEOL-RE1X EPR spectrometer (Jeol, Tokyo, Japan) under the following conditions: 334.7 mT center field, 5 mT sweep width, 0.079 mT field modulation, 20 mW microwave power, 0.1 sec time constant, and 2 min scan time at 22.5° C. Utilizing signal magnitude and isolated volumes, amount and concentration of JP4-039 or TEMPO were calculated for each sample.

| SMILES | rats surviving longer than 3 hours after completion of the hemorrhage protocol (Sprague Dawley rats) | rats surviving the whole 6 hour post-bleeding observation period (Sprague Dawley rats) | survival time versus vehicle (Sprague Dawley rats; no resuscitation) | ñ (shoulder on the survival curve) ([1]; drug added after irradiation) | ñ (shoulder on the survival curve) ([1]; drug added before irradiation) | toxicity [2] | cellular EPR signal detected in mitochondria (32D cl 3 cells; exponential growth) [%] | cellular EPR signal in nucleus and/or cellular debris (32D cl 3 cells; exponential growth) [%] | cellular EPR signal in the cytoplasm (32D cl 3 cells; exponential growth) [%] | concentration in the nucleus and cellular debris (32D cl 3 cells; exponential growth) [µM] | concentration in the whole cell pellet (32D cl 3 cells; exponential growth) [µM] | mitochondrial concentration (32D cl 3 cells; exponential growth) [µM] | cellular EPR signal in nucleus and/or cellular debris (32D cl 3 cells; pelleted cells) [%] | cellular EPR signal in the cytoplasm (32D cl 3 cells; pelleted cells) [%] | cellular EPR signal localized to the mitochondria (32D cl 3 cells; pelleted cells) [%] | mitochondrial concentration (32D cl 3 cells; pelleted cells) |
| --- | --- | --- | --- | --- | --- | --- | --- | --- | --- | --- | --- | --- | --- | --- | --- | --- |
| CC(C)C[C@@H](/C=C/[C@H](Cc1ccccc1)C(=O)N1CCC[C@H]1C(=O)N[C@H](C(=O)N[C@@H](CCCNC(=O)OCc1ccccc1)C(=O)NC1CC(C)(C)N([O])C(C)(C)C1)C(C)C)NC(=O)OC(C)(C)C [XJB-5-131] | Three of the six | one rat | survived significantly longer |  |  |  |  |  |  |  |  |  |  |  |  |  |
| CC(C)C[C@@H](/C=C/CC(=O)NC1CC(C)(C)N([O])C(C)(C)C1)NC(=O)OC(C)(C)C [JP4-039, TEMPO-4-yl-(S,E)-5-(tert-butoxycarbonylamino)-7-methyloct-3-enamide] |  |  |  | 4.55±0.47 | 5.25±0.84 | no signs of toxicity; also recorded: not toxic | 5.0±0.3 | 37.2±0.3 | 19.4±1.6 | 10.1 ± 0.1 | 12.6 ± 0.2 | 8.5 ± 0.5 | 33.2±3.8 | 29.5±0.7 | 3.9±0.2 | 10.90 ± 0.48 µM and 10.9 µM |
